Series [1] is described as follows: Binding affinity to EBOV glycoprotein assessed as dissociation constant by SPR analysis. Details: species or system Ebolavirus.
Series [2] has as its system Marburgvirus. Briefly: Antiviral activity against pseudotyped Marburgvirus Angola infected in human A549 cells assessed as inhibition of Pseudoviral entry incubated for 40 hrs. It is filed as functional, organism-based. The following applies: Orthomarburgvirus, A549, 40 h.
The test system of series [3] is Ebolavirus. Briefly: Antiviral activity against EBOV Mayinga infected in human HeLa cells assessed as inhibition of viral replication incubated for 40 hrs. Format: functional, organism-based. Conditions: Orthoebolavirus.
Series [4] can be described thus: Selectivity index, ratio of CC50 for cytotoxicity against human A549 cells to EC50 for antiviral activity against pseudotyped Marburgvirus Angola infected in human A549 cells assessed as inhibition of Pseudoviral entry. Format: toxicity, cell-based. Conditions: read-out: Ratio CC50/EC50.
The test system of a further series is Bundibugyo virus. Briefly: Antiviral activity against pseudotyped Bundibugyo virus infected in human A549 cells assessed as inhibition of viral growth. Format: functional, organism-based.
Series [5] concerns Sudan ebolavirus. The experiment in a line: Antiviral activity against pseudotyped Sudan ebolavirus Gulu infected in human HeLa cells assessed as inhibition of viral replication. It is filed as functional, organism-based.
The next series has as its system Tai Forest ebolavirus. Briefly: Antiviral activity against pseudotyped Tai Forest ebolavirus infected in human A549 cells assessed as inhibition of viral growth. It is filed as functional, organism-based.
Series [6] is described as follows: Selectivity index, ratio of CC50 for cytotoxicity against human A549 cells to EC50 for antiviral activity against pseudotyped EBOV Mayinga infected in human A549 cells assessed as inhibition of Pseudoviral entry. Conditions: read-out: Ratio CC50/EC50. Format: toxicity, cell-based.
Series [7] has as its system Sudan ebolavirus. Briefly: Antiviral activity against pseudotyped Sudan ebolavirus Gulu infected in human A549 cells assessed as inhibition of viral growth. Format: functional, organism-based.
Series [8] has as its system Ebolavirus. Briefly: Antiviral activity against pseudotyped EBOV Mayinga infected in human A549 cells assessed as inhibition of Pseudoviral entry incubated for 40 hrs. Format: functional, organism-based. The following applies: Orthoebolavirus, A549, 40 h.
The test system of series [9] is Marburgvirus. The experiment in a line: Antiviral activity against Marburgvirus Angola infected in human Huh-7 cells assessed as inhibition of viral replication. Format: functional, organism-based. The following applies: Orthomarburgvirus.
The test system of the next series is A549. The experiment in a line: Cytotoxicity against human A549 cells assessed as as reduction in cell viability incubated for 48 hrs by celltiter-glo assay. It is filed as functional.
Series [10] in a line: Stability in human plasma measured after 60 mins. It is filed as ADME, cell-free. The following applies: read-out: Stability.
Series [11] can be described thus: Stability in mouse plasma measured after 60 mins. Conditions: read-out: Stability. It is filed as ADME, cell-free.
Series [12] concerns Marburgvirus. Briefly: Antiviral activity against pseudotyped Marburgvirus 2005 Lake Victoria Angola assessed as inhibition of viral growth. Format: functional, organism-based. Conditions: Orthomarburgvirus.
Series [13] relates to Ebolavirus. The experiment in a line: Antiviral activity against infectious EBOV 1976 Zaire Mayinga assessed as inhibition of viral growth. Conditions: Orthoebolavirus. Format: functional, organism-based.
For series [14], the system named is Ebolavirus. Briefly: Antiviral activity against pseudotyped EBOV 1976 Zaire Mayinga assessed as inhibition of viral growth. Format: functional, organism-based. Conditions: Orthoebolavirus.
Series [15] relates to Marburgvirus. Briefly: Antiviral activity against pseudotyped Marburgvirus Angola infected in human A549 cells assessed as inhibition of viral growth at 10 uM entry measured after 2 hrs. It is filed as functional, organism-based.
A further series has as its target CYP2C9 (Homo sapiens, UniProt P11712). The experiment in a line: Inhibition of CYP2C9 in human liver microsomes using tolbutamide as substrate at 10 uM preincubated with compound for 5 mins followed by NADPH addition and measured after 20 mins by LC-MS/MS analysis relative to control. Conditions: probe tolbutamide, time 25 min. It is filed as ADME, Microsome.
The target in the next series is CYP2D6 (Homo sapiens, UniProt P10635). The experiment in a line: Inhibition of CYP2D6 in human liver microsomes using dextromethorphan as substrate at 10 uM preincubated with compound for 5 mins followed by NADPH addition and measured after 20 mins by LC-MS/MS analysis relative to control. Format: ADME, Microsome. The following applies: probe dextromethorphan, time 25 min.

For series [16], the system named is Ebolavirus. The experiment in a line: Antiviral activity against pseudotyped EBOV Mayinga infected in human A549 cells assessed as inhibition of viral growth at 3 uM measured after 3 hrs. It is filed as functional, organism-based.
Series [17] in a line: Metabolic stability in human microsome measured at 60 min. It is filed as ADME. The following applies: microsomes, read-out: Stability.

The source made the active and inactive calls. The rule behind the calls is not given here.

Chain of CYP2D6 (P10635 whole entry): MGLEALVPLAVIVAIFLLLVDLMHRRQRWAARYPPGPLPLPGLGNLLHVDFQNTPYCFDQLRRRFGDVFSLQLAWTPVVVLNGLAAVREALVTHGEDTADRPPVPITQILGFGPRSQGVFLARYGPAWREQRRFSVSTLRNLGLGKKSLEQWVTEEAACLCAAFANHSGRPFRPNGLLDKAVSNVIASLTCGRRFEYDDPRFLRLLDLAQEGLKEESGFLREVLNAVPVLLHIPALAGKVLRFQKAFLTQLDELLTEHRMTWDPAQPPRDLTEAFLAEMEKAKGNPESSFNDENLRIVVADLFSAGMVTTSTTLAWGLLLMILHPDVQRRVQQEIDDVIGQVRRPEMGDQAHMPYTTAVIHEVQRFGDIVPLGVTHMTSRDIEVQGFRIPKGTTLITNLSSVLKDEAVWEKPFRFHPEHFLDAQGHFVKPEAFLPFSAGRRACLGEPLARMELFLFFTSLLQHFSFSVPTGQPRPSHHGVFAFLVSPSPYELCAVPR
Chain of CYP2C9 (P11712 whole entry): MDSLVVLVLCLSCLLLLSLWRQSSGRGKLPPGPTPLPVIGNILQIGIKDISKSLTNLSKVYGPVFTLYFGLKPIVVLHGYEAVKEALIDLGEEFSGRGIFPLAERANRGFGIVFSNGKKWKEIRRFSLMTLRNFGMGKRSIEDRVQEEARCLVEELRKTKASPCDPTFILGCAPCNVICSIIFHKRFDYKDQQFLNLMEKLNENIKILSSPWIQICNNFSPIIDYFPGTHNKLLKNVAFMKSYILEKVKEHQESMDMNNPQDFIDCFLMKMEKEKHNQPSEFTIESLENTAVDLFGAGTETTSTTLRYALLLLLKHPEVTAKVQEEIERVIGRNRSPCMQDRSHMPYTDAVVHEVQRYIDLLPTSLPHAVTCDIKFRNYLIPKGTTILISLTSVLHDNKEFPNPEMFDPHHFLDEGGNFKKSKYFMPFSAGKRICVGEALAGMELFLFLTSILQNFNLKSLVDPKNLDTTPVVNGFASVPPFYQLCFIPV

Regarding `OCCOc1ccc(/C(=C(/CCCl)c2ccccc2)c2ccccc2)cc1` [OSPEMIFENE], in series [1], the Kd amounted to 19.8 µM.

In the case of `CN(C)C1CCN(C(=O)c2cc3ccccc3n2Cc2ccc(F)cc2)CC1`, the EC50 in the series with Marburgvirus [2] was 4.99 µM; with Ebolavirus [3], above 20 µM; with Bundibugyo virus it was 0.353 µM; in the series on Sudan ebolavirus [5], 1.01 µM; in the series with Tai Forest ebolavirus it was 2.7 µM; in the series with Sudan ebolavirus [7] it was 0.554 µM. For the same compound, the EC50 in the series on Ebolavirus [8] is 0.453 µM; with Marburgvirus [9], above 20 µM. Also, the selectivity ratio in [4] was 13; in series [6], 100.

For `CN(C)C1CCN(C(=O)c2cc3ccccc3n2Cc2ccccc2)CC1`, the EC50 in the series on Marburgvirus [2] stood at 9.53 µM; in the series on Ebolavirus [8], 0.55 µM. The selectivity ratio in [4] was 9.6; in series [6], around 180. For the same compound, in the series with A549, the cytotoxic concentration (CC50) is around 100 µM. In addition, the remaining at 1 h in series [10] and in [11] was 100% in each case.

Consider `CN(C)C1CCN(C(=O)c2cc3sccc3n2Cc2ccc(Cl)cc2)CC1`, for which the concentration giving a half-maximal response (EC50) is 3.7 µM in the series with Marburgvirus [2]; 1.9 µM with Bundibugyo virus; 4.14 µM with Tai Forest ebolavirus; 1.01 µM with Sudan ebolavirus [7]; 0.899 µM in the series on Ebolavirus [8]. Also, the values for the selectivity ratio in series [4] and in [6] were 15 and 61, respectively.

Regarding `CN(C)C1CCN(C(=O)c2cc3occc3n2Cc2ccc(Cl)cc2)CC1`, the EC50 in the series with Marburgvirus [2] amounted to 11.5 µM; in the series on Ebolavirus [3], 6.21 µM; with Bundibugyo virus, 1.99 µM; in the series on Sudan ebolavirus [5] it was 0.5 µM; with Tai Forest ebolavirus, 5.6 µM; in the series with Sudan ebolavirus [7], 0.641 µM. Further, the EC50 is 1.05 µM with Ebolavirus [8] and 7.96 µM in the series with Marburgvirus [9]. Besides, the figures for the selectivity ratio in series [4] and in series [6] were 5.3 and 58, respectively. In addition, the remaining at 1 h in series [10] and in series [11] was 100% throughout.

`CN(C)CCNC(=O)c1cc2occc2n1Cc1ccc(Cl)cc1`: the EC50 in the series on Marburgvirus [12] came out at 7.7 µM; with Marburgvirus [2], 6.47 µM; in the series on Ebolavirus [3], 2.43 µM; in the series on Bundibugyo virus, 1.95 µM; with Sudan ebolavirus [5], 3.29 µM; in the series with Tai Forest ebolavirus it was 4.3 µM. The EC50 in the series with Sudan ebolavirus [7] turned out to be 1.04 µM; in the series on Ebolavirus [8], 1.26 µM; in the series with Ebolavirus [13], 5.2 µM; with Marburgvirus [9], 6.69 µM; in the series with Ebolavirus [14] it was 1.26 µM. The selectivity ratio is 9.8 in [4] and 50 in [6]. The remaining at 1 h in [10] and in series [11] was 100% in each case.

Consider `COc1ccc(Cn2c(C(=O)N3CCC(N(C)C)CC3)cc3ccccc32)cc1`, for which the EC50 was 7.84 µM in the series on Marburgvirus [2]; 0.854 µM with Ebolavirus [3]; 1.39 µM with Bundibugyo virus; around 20 µM in the series on Sudan ebolavirus [5]; 5.28 µM with Tai Forest ebolavirus; 1.23 µM in the series on Sudan ebolavirus [7]. The EC50 worked out at 0.543 µM in the series with Ebolavirus [8] and 4.29 µM with Marburgvirus [9]. The selectivity ratio in series [4] was found to be 13. Besides, in the series on A549, the CC50 was around 100 µM.

With `CN(C)C1CCN(C(=O)c2cc3ccccc3n2CC2CCCCC2)CC1`, the EC50 in the series with Marburgvirus [2] was determined as 3.34 µM; with Ebolavirus [3], 0.391 µM; with Sudan ebolavirus [5], 0.652 µM; in the series with Ebolavirus [8] it was 0.295 µM; in the series on Marburgvirus [9], 1.32 µM. The selectivity ratio was 15 in series [4] and 170 in series [6]. The outcome in the series on Marburgvirus [15] and in the series on Ebolavirus [16] was inactive. In addition, the remaining at 1 h in [10] and in [11] was 100% in each case. Besides, the results for the inhibition at 20 min, 10 µM at CYP2C9 and at CYP2D6 were 4.82% and 19.1%, respectively.

`CN(C)CCNC(=O)c1cc2ccccc2n1Cc1ccc(Cl)cc1`: the 50% effective concentration (EC50) came to 3.92 µM in the series on Marburgvirus [2]; 2.66 µM in the series with Bundibugyo virus; 3.74 µM with Tai Forest ebolavirus; 0.834 µM in the series on Sudan ebolavirus [7]; 3.49 µM in the series with Ebolavirus [8]. Besides, the selectivity ratio amounted to 7.5 in series [4] and 8.4 in [6].

Take `CN(C)C1CCN(C(=O)c2cn(Cc3ccccc3)c3ccccc23)CC1`: the EC50 was found to be 14.6 µM in the series on Marburgvirus [2] and 2.84 µM in the series with Ebolavirus [8]. Also, in series [4], the selectivity ratio is 6.9. Further, the remaining at 1 h in series [17] is 95.7%; in series [10], 100%; in series [11] it was 100%.

For the compound `O=C(Nc1ccc(N2CCC(F)(F)CC2)cc1)c1cc2occc2n1Cc1ccc(Cl)cc1`, the EC50 in the series on Marburgvirus [2] was above 100 µM; with Bundibugyo virus, 36.4 µM; in the series on Tai Forest ebolavirus, above 100 µM; with Sudan ebolavirus [7] it was 2.39 µM; in the series on Ebolavirus [8], 11.7 µM. Further, the selectivity ratio in series [4] is 1; in series [6] it was 8.6. Also, the CC50 with A549 was above 100 µM.

`CN(C)CCOc1ccc(/C(=C(/CCCl)c2ccccc2)c2ccccc2)cc1` [TOREMIFENE]: in series [1], the Kd was found to be 18.9 µM. Also, the result in the series with Marburgvirus [15] and in the series on Ebolavirus [16] was inactive.

The record behind these values is ChEMBL document CHEMBL5576160, “N-Substituted Pyrrole-Based Heterocycles as Broad-Spectrum Filoviral Entry Inhibitors” (J Med Chem, 2024).
